ChEMBL document CHEMBL1122344, “Pyridazinones. 2. Synthesis and antisecretory and antiulcer activities of thiourea and 2-cyanoguanidine derivatives” (1983)

What was measured:
Type in all cases: functional
Rattus norvegicus [1] = organism: Rattus norvegicus; assay: Dose required to inhibit gastric secretory activity in pylorus lygated rats; conditions: Stomach
Rattus norvegicus [2] = assay: Gastric antisecretory activity at the dose of 100 mg/kg in pylorus lygated rats
Rattus norvegicus [3] = organism: Rattus norvegicus; assay: Dose required to inhibit ulcer induced by stress in rats

Row | Structure (SMILES) | ED50 (Rattus norvegicus [1]) | inhibition in vivo at 100 mg/kg (Rattus norvegicus [2]) | ED50 (Rattus norvegicus [3])
1 | CCC/N=C(/NC#N)NCCCn1nc(-c2ccccc2)ccc1=O | 100 mg/kg | 52.9% | –
2 | C/N=C(/NC#N)NCCCCCCn1nc(-c2ccccc2)ccc1=O | > 100 mg/kg | 31.7% | > 100 mg/kg
3 | O=c1ccc(-c2ccccc2)nn1CCCC/N=C(\S)Nc1ccc(F)cc1 | > 100 mg/kg | 45.6% | –
4 | CC/N=C(\S)NCCn1nc(-c2ccccc2)ccc1=O | – | 8.1% | –
5 | C/N=C(\S)NCCCCn1nc(-c2ccccc2)ccc1=O | 28.9 mg/kg | 87.1% | 17.3 mg/kg
6 | N#CNC(=N)NCCn1nc(-c2ccccc2)ccc1=O | – | 18.5% | –
7 | CC/N=C(/NC#N)NCCCn1nc(-c2ccccc2)c(C)cc1=O | – | 0.2% | –
8 | CC/N=C(/NC#N)NCCCn1nc(-c2ccccc2)cc(C)c1=O | – | 23.5% | –
9 | C/N=C(/NC#N)NCCCCn1nc(-c2ccc(C)cc2)ccc1=O | > 100 mg/kg | 45.7% | –
10 | O=c1ccc(-c2ccccc2)nn1CCCCNC(=S)Nc1cccc2ccccc12 | > 100 mg/kg | 42.3% | –
11 | C/N=C(/NC#N)NCCCCn1nc(Nc2ccccc2)ccc1=O | > 100 mg/kg | 24.4% | –
12 | C/N=C(/NC#N)NCCCCn1nc(N(C)C)ccc1=O | > 100 mg/kg | 26.3% | –
13 | CC/N=C(/NC#N)NCCCCn1nc(-c2ccccc2)ccc1=O | 92 mg/kg | 58.8% | 60.7 mg/kg
14 | C/N=C(\S)NCCCn1nc(C)ccc1=O | – | -8.2% | –
15 | N#CN/C(=N\CCCCn1nc(-c2ccccc2)ccc1=O)NCCc1ccccc1 | – | 0.3% | –
16 | C/N=C(\S)NCCn1nc(C)ccc1=O | – | 6% | –
17 | C/N=C(\S)NCCCCn1nc(C)ccc1=O | > 100 mg/kg | 44.5% | –
18 | C/N=C(/NC#N)NCCCCCn1nc(-c2ccccc2)cc(C)c1=O | > 100 mg/kg | 33.8% | –
19 | CC/N=C(\S)NCCCCCCn1nc(-c2ccccc2)ccc1=O | – | -5.6% | –
20 | CC(C)(C)/N=C(\S)NCCCCn1nc(-c2ccccc2)ccc1=O | > 100 mg/kg | 33.6% | –
21 | C/N=C(/NC#N)NCCCn1nc(-c2ccccc2)cc(C)c1=O | > 100 mg/kg | 42.8% | –

Row | Structure (SMILES) | ED50 (Rattus norvegicus [1]) | inhibition in vivo at 100 mg/kg (Rattus norvegicus [2]) | ED50 (Rattus norvegicus [3])
22 | CC/N=C(/NC#N)NCCCn1nc(-c2ccccc2)ccc1=O | 78.3 mg/kg | 62.9% | 88.5 mg/kg
23 | C/N=C(/NC#N)NCCCn1nc(-c2ccccc2)c(C)cc1=O | – | 17.2% | –
24 | O=c1ccc(-c2ccccc2)nn1CCCC/N=C(\S)Nc1ccc(S(=O)(=O)O)cc1 | – | 25.1% | –
25 | O=c1ccc(-c2ccccc2)nn1CCNC(=S)Nc1ccccc1 | – | -3.4% | –
26 | C/N=C(/NC#N)NCCCCn1nc(-c2ccccc2)c(C)cc1=O | > 100 mg/kg | 46.4% | –
27 | C/N=C(/NC#N)NCCCCn1nc(N2CCOCC2)ccc1=O | – | -10.2% | –
28 | C/N=C(\S)NCCCn1nc(-c2ccccc2)ccc1=O | > 100 mg/kg | 38.9% | 58 mg/kg
29 | C/N=C(\S)NCCCCCn1nc(C)ccc1=O | – | 3.2% | –
30 | C/N=C(/NC#N)NCCCCCn1nc(-c2ccccc2)c(C)cc1=O | > 100 mg/kg | 28.5% | –
31 | CC/N=C(\S)NCCCCn1nc(-c2ccccc2)ccc1=O | 37.2 mg/kg | 67.7% | 19.8 mg/kg
32 | C/N=C(/NC#N)NCCn1nc(-c2ccccc2)ccc1=O | – | -3.5% | –
33 | C#CCN/C(=N/CCCn1nc(-c2ccccc2)ccc1=O)NC#N | – | -11.8% | –
34 | CNC(=S)CCCCCn1nc(-c2ccccc2)ccc1=O | 23.8 mg/kg | 90.3% | 18.3 mg/kg
35 | CC/N=C(/NC#N)NCCCCCn1nc(-c2ccccc2)ccc1=O | 100 mg/kg | 48.2% | 60.3 mg/kg
36 | CN(C)/C(=N/CCn1nc(-c2ccccc2)ccc1=O)NC#N | 62.8 mg/kg | 63.9% | > 100 mg/kg
37 | CN/C(=N/CCCCn1nc(-c2ccc(OC)cc2)ccc1=O)NC#N | > 100 mg/kg | 48.5% | –
38 | C/N=C(\S)N(C)CCCCn1nc(-c2ccccc2)ccc1=O | – | 17.5% | –
39 | CCC/N=C(/NC#N)NCCCCn1nc(-c2ccccc2)ccc1=O | > 100 mg/kg | 26.3% | –
40 | CC/N=C(/NC#N)NCCCCn1nc(-c2ccccc2)c(C)cc1=O | > 100 mg/kg | 38.8% | –
41 | C/N=C(\S)NCCCCCn1nc(-c2ccccc2)ccc1=O | 35.3 mg/kg | 68.9% | 42.1 mg/kg
42 | C/N=C(/NC#N)NCCCCCn1nc(C)ccc1=O | – | 14.9% | –

Row | Structure (SMILES) | ED50 (Rattus norvegicus [1]) | inhibition in vivo at 100 mg/kg (Rattus norvegicus [2]) | ED50 (Rattus norvegicus [3])
43 | CCC/N=C(/NC#N)NCCCn1nc(C)ccc1=O | – | 17.5% | –
44 | O=c1ccc(-c2ccccc2)nn1CCCCNC(=S)Nc1ccccc1 | > 100 mg/kg | 38.4% | > 100 mg/kg
45 | O=c1ccc(-c2ccccc2)nn1CCCCNC(=S)NCc1ccccc1 | – | 5.4% | –
46 | C/N=C(/NC#N)NCCCCn1nc(-c2ccc(Cl)cc2)ccc1=O | 100 mg/kg | 51% | –
47 | CN(C)/C(=N/CCCCCn1nc(-c2ccccc2)ccc1=O)NC#N | 81.5 mg/kg | 63.9% | 53.1 mg/kg
48 | C/N=C(\S)NCCCCCCn1nc(-c2ccccc2)ccc1=O | – | 22.2% | –
49 | CN(C)/C(=N/CCCCCCn1nc(-c2ccccc2)ccc1=O)NC#N | 93.1 mg/kg | 58.4% | 92.5 mg/kg
50 | CC/N=C(\S)NCCCn1nc(-c2ccccc2)ccc1=O | > 100 mg/kg | 39% | 88.2 mg/kg
51 | O=c1ccc(-c2ccccc2)nn1CCCCNC(=S)NC1CCCCC1 | – | 18.1% | –
52 | CC/N=C(/NC#N)NCCCn1nc(C)ccc1=O | > 100 mg/kg | 34.5% | –
53 | C/N=C(\NC#N)NCCCCn1nc(-c2ccccc2)ccc1=O | – | 79% | –
54 | CC/N=C(/NC#N)NCCCCn1nc(-c2ccccc2)cc(C)c1=O | > 100 mg/kg | 42.5% | –
55 | N#CNC(=N)NCCCCCn1nc(-c2ccccc2)ccc1=O | > 100 mg/kg | 31% | –
56 | O=c1ccc(-c2ccccc2)nn1CCCCNC(=S)Nc1ccc(Cl)cc1 | > 100 mg/kg | 43.2% | –
57 | O=c1ccc(-c2ccccc2)nn1CCCNC(=S)NC1CCCCC1 | – | 23.6% | –
58 | C/N=C(/NC#N)NCCCCCn1nc(-c2ccccc2)ccc1=O | 100 mg/kg | 47.6% | 76.2 mg/kg
59 | N#CNC(=N)NCCCCn1nc(-c2ccccc2)ccc1=O | 77.2 mg/kg | 61.2% | 59.3 mg/kg
60 | N/C(S)=N/CCCCn1nc(-c2ccccc2)ccc1=O | 36.3 mg/kg | 72% | –
61 | C/N=C(/NC#N)NCCCCn1nc(C)ccc1=O | > 100 mg/kg | 23.5% | –
62 | CC/N=C(/NC#N)NCCCCCCn1nc(-c2ccccc2)ccc1=O | > 100 mg/kg | 29.1% | > 100 mg/kg
63 | CN(C)/C(=N/CCCn1nc(-c2ccccc2)ccc1=O)NC#N | 53 mg/kg | 72.2% | 93.1 mg/kg

Row | Structure (SMILES) | ED50 (Rattus norvegicus [1]) | inhibition in vivo at 100 mg/kg (Rattus norvegicus [2]) | ED50 (Rattus norvegicus [3])
64 | C#CCN/C(=N/CCCCn1nc(-c2ccccc2)ccc1=O)NC#N | – | -12.9% | –
65 | C=CCNC(=S)NCCCCn1nc(-c2ccccc2)ccc1=O | > 100 mg/kg | 27.1% | 78.6 mg/kg
66 | O=c1ccc(-c2ccccc2)nn1CCCC/N=C(\S)Nc1cccc(F)c1 | > 100 mg/kg | 30.4% | –
67 | CC/N=C(\S)NCCCCCn1nc(-c2ccccc2)ccc1=O | 51.8 mg/kg | 66.4% | –
68 | CCC/N=C(/NC#N)NCCCCCn1nc(-c2ccccc2)ccc1=O | > 100 mg/kg | 27.5% | –
69 | C/N=C(\S)NCCn1nc(-c2ccccc2)ccc1=O | – | 23.3% | > 100 mg/kg
70 | O=c1ccc(-c2ccccc2)nn1CCCNC(=S)Nc1ccccc1 | – | 12.1% | –
71 | N#CNC(=N)NCCCCCCn1nc(-c2ccccc2)ccc1=O | – | 20.5% | –
72 | C/N=C(\S)NCCCCCCn1nc(C)ccc1=O | – | -12.5% | –
73 | C/N=C(/NC#N)NCCCCn1nc(N2CCN(C)CC2)ccc1=O | – | 7.9% | –
74 | O=c1ccc(-c2ccccc2)nn1CCNC(=S)NC1CCCCC1 | – | 12.3% | –
75 | N#CNC(=N)NCCCn1nc(-c2ccccc2)ccc1=O | > 100 mg/kg | 33.3% | –
76 | C/N=C(/NC#N)NCCCCn1nc(-c2ccccc2)cc(C)c1=O | 60.8 mg/kg | 68.6% | –
77 | CC(C)C/N=C(\S)NCCCCn1nc(-c2ccccc2)ccc1=O | > 100 mg/kg | 35.8% | –
78 | C/N=C(/NC#N)NCCCn1nc(C)ccc1=O | – | 6.8% | –
79 | CN(C)/C(=N/CCCCn1nc(-c2ccccc2)ccc1=O)NC#N | 30.3 mg/kg | 80.7% | 52.9 mg/kg
80 | C/N=C(/NC#N)NCCCCn1nc(N2CCCC2)ccc1=O | – | -1% | –
81 | C/N=C(/NC#N)N(C)CCCCn1nc(-c2ccccc2)ccc1=O | > 100 mg/kg | 27% | –
82 | CC/N=C(/NC#N)NCCCCn1nc(C)ccc1=O | – | 13.5% | –
83 | C/N=C(/NC#N)NCCCn1nc(-c2ccccc2)ccc1=O | > 100 mg/kg | 40.5% | 78.1 mg/kg
84 | CN/C(=N\CCSCc1nc[nH]c1C)NC#N [CIMETIDINE] | – | 80.6% | 43.2 mg/kg
